This note sets out measurements from patent publication US20230203029A1 (priority 2020, published 2023).

Molecules are shown by their SMILES. Read-outs that look alike come from different tables or passages of the source.

Assay [1] has as its target T1, human AXL cytoplasmic domain (Homo sapiens, UniProt P30530).
T1 construct: human AXL cytoplasmic domain (Thermo Fisher A31515); purchased Thermo Fisher A31515
T1 sequence (P30530 473-894 limits assumed): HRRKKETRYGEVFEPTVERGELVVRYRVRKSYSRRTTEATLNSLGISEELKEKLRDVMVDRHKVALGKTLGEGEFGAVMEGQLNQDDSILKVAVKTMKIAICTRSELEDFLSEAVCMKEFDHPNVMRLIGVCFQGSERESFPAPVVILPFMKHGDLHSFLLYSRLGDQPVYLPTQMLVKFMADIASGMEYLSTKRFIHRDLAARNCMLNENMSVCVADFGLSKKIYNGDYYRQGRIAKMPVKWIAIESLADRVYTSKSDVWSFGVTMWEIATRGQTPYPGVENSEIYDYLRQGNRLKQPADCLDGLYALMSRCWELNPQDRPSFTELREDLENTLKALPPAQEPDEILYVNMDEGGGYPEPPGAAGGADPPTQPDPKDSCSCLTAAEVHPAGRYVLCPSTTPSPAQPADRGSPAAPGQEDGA
Briefly: Assay 1b AXL HTRF KinEASE-TK assay. In kind it is biochemical. The procedure:
Assay 1b—AXL HTRF KinEASE-TK Assay
Compound inhibition of human AXL cytoplasmic domain (Thermo Fisher A31515) enzymatic activity was tested via the HTRF KinEASE-tyrosine kinase (TK) kit (Cisbio 62TK0PEC). Experiments were performed in 20 μl enzymatic buffer (Cisbio 62EZBFDD) supplemented with 5 mM MgCl2, 1 mM MnCl2, 1 mM DTT, 50 nM SEB (Cisbio, 61SEBALB), with 5 nM of AXL and the test compounds of interest. […] The enzymatic reaction was carried out for 30 min at room temperature. 10 μL TK Antibody-Cryptate/Streptavidin-XL665 (Cisbio 610SAXLG) was then added for 60 min, including EDTA containing detection buffer (Cisbio 62SDBRDF) to stop the reaction. The plate was read on a BMG Pherastar FSX using a HTRF 337/620/665 optical module to excite the terbium donor at 337 nm, and record donor emission at 620 nm and acceptor fluorophore emission at 665 nm. From this the FRET ratio (acceptor 665 nm/donor 620 nm) for each data point was calculated. […] Competition curves were then fit to a 4 parameter logistic equation including a variable slope factor to determine the IC50 (compound concentration that inhibits 50% of AXL activity).

Assay [2] has as its target T2, human MERTK cytoplasmic domain (Homo sapiens, UniProt Q12866).
T2 construct: human MERTK cytoplasmic domain (Carna Biosciences 08-108); purchased Carna Biosciences 08-108
Briefly: biochemical. As to the method:
Assay 1a—MERTK HTRF KinEASE-TK Assay
The enzymatic reaction was carried out for 30 min at room temperature. 10 μL TK Antibody-Cryptate/Streptavidin-XL665 (Cisbio 610SAXLG) was then added for 60 min, including EDTA containing detection buffer (Cisbio 62SDBRDF) to stop the reaction.

The target in assay [3] is T3, Ba/F3 Pro B-cell line expressing BCR-human AXL kinase domain fusion protein (Homo sapiens, UniProt P30530).
T3 construct: P11274 (Breakpoint cluster region protein)
T3 sequence (P30530 536-807 limits assumed): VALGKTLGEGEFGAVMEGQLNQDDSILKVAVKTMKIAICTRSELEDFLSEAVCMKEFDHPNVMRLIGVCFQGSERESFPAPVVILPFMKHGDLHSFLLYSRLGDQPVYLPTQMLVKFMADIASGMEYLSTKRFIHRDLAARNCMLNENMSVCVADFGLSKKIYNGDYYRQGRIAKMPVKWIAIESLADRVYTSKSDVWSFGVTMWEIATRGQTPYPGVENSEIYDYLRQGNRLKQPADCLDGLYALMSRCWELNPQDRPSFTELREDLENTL
Briefly: Assay 5 Ba/F3 cell survival assay, BCR-Axl. To be noted: read-out: BCR-Axl Ba/F3 IC50, 48 h, CellTiter-Glo. In kind it is cell-based. The procedure:
(§1) Assay 5—Ba/F3 Cell Survival Assays.
(§2) The inhibitory potencies of compounds were assessed in a Ba/F3 cell survival assay, using the Ba/F3 Pro B-cell line, recombinantly expressing a BCR-human AXL kinase domain fusion protein (pACD320/AXL, Advanced Cellular Dynamics Inc), TEL-human MERTK fusion domain (pACD1000/MERTK, Advanced Cellular Dynamics Inc), TEL-human Tyro3 fusion domain (pACD1000/TYRO3, Advanced Cellular Dynamics Inc), or control TEL-none (ACD320, Advanced Cellular Dynamics Inc) BRC-none constructs (ACD1000, Advanced Cellular Dynamics Inc). 10 ng/mL recombinant murine IL3 (R&D, 403-ML-010) was included in the media when propagating negative control TEL-none or BCR-none lines only. […] The final assay DMSO concentration was 0.25%. Compound incubations were conducted for 48 h at 37° C./5% CO2, after which cell plate was equilibrated at room temperature for 20 minutes prior to assessing viability. 15 μl of Promega CellTiter-Glo reagent (G7572) was added to each well for 2 min on an orbital shaker to induce cell lysis.
(§3) The plate was then equilibrated for 5 min at room temperature and luminescence read on a BMG Pherastar FSX using the LUM plus optic module. […] Competition curves were then fit to a 4 parameter logistic equation including a variable slope factor to determine the IC50 (compound concentration causing a half-maximal inhibition of cell survival).

The target in assay [4] is T4, Ba/F3 Pro B-cell line expressing TEL-human Tyro3 fusion domain (Homo sapiens, UniProt Q06418).
T4 sequence (Q06418 518-790 limits assumed): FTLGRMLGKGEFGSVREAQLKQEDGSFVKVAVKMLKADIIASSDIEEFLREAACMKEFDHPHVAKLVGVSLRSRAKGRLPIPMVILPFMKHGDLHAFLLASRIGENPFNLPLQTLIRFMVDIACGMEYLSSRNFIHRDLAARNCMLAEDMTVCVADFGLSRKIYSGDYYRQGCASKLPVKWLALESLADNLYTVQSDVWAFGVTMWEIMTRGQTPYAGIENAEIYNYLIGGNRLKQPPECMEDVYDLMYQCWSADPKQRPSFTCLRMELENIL
Format: cell-based. To be noted: cell survival, 48 h, CellTiter-Glo. The procedure: as §1
as §2, with “only. Cells were maintained in RMPI 1640 (Corning 15-040-CV) culture media containing 10% heat inactivated semi-synthetic FBS (RMBIO FGR-BBT), 2 mM L-Glutamine (Sigma, G7513), 100 IU/mL Penicillin-[…] Streptomycin (Sigma, P4333), and 500 ng/mL Puromycin (Sigma, P8833). Experiments were performed in 50 μl growth media, including the test compounds of interest, and dispensing 5000 cells/well in logarithmic-phase growth into a 384 well white Optiplate (Perkin Elmer 6007299).” for “only.”
The plate was then equilibrated for 5 min at room temperature and luminescence read on a BMG Pherastar FSX using the LUM plus optic module. Data were normalised to measurements in the absence of competing compound (0% inhibition). Competition curves were then fit to a 4 parameter logistic equation including a variable slope factor to determine the IC50 (compound concentration causing a half-maximal inhibition of cell survival).

Assay [5] addresses T5, Ba/F3 Pro B-cell line expressing TEL-human MERTK fusion domain (Homo sapiens, UniProt Q12866).
T5 sequence (Q12866 587-858 limits assumed): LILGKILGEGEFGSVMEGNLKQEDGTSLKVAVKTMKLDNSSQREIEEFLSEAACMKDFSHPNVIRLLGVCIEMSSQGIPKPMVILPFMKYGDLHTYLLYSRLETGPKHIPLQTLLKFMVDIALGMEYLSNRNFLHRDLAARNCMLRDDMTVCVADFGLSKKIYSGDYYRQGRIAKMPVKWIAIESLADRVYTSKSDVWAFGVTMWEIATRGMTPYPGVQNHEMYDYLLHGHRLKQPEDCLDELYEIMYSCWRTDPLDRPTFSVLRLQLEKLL
Format: cell-based. As to the method:
as §1, §2, §3

Where [6] appears, read: 30 uM ATP, read-out: Assay 1a Mer IC50 30 uM ATP.
Setting [7] is: cell survival, 48 h, CellTiter-Glo; read-out: TEL-MERTK Ba/F3 IC50.

T2 sequence (Q12866 527-999): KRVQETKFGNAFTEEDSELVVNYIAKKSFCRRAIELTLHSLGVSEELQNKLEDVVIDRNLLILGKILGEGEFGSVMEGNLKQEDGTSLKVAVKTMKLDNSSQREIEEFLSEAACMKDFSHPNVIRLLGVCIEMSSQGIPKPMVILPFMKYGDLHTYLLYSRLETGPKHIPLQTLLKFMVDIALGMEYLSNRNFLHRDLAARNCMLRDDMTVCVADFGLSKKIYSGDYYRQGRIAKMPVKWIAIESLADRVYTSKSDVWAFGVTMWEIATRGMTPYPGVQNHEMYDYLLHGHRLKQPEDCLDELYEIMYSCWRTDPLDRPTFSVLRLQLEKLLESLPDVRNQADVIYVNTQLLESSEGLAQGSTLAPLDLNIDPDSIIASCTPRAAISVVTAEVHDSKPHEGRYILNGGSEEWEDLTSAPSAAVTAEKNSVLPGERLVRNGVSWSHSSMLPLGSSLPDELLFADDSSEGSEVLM

`O=C(Nc1ccc(Oc2ccnc3cnc(N4CCNCC4)cc23)cc1)c1cccc(-c2ccc(F)cc2)[n+]1[O-]` [Example 12.6, 6-(4-fluorophenyl)-1-oxido-N-[4-[(6-piperazin-1-yl-1,7-naphthyridin-4-yl)oxy]phenyl]pyridin-1-ium-2-carboxamide]: the IC50 in assay [1] stood at 31 nM; in assay [2] (setting [6]), 3 nM; in assay [3] it was 6 nM; in assay [4] it was 110 nM; in assay [5] (setting [7]), 16 nM.

`CN1CCC(c2cc3c(Oc4ccc(NC(=O)c5cccn(-c6ccc(F)cc6)c5=O)nc4)ccnc3cn2)CC1` [Example 16, 1-(4-Fluorophenyl)-N-[5-[[6-(1-methyl-4-piperidyl)-1,7-naphthyridin-4-yl]oxy]-2-pyridyl]-2-oxo-pyridine-3-carboxamide]: the IC50 in assay [1] came out at 264 nM; in assay [2] (setting [6]), 19 nM; in assay [3] it was 22 nM; in assay [4], 931 nM; in assay [5] (setting [7]) it was 14 nM.

Consider `CC(C)(C)OC(=O)N1CCC(c2cc3c(Oc4ccc(NC(=O)c5cccn(-c6ccc(F)cc6)c5=O)nc4)ccnc3cn2)C1` (centres unmarked) [Example 16.1, tert-butyl 3-[4-[[6-[[1-(4-fluorophenyl)-2-oxo-pyridine-3-carbonyl]amino]-3-pyridyl]oxy]-1,7-naphthyridin-6-yl]pyrrolidine-1-carboxylate], for which the IC50 in assay [1] is 27 nM; in assay [2] (setting [6]), 4 nM; in assay [3] it was 76 nM; in assay [4], 1930 nM; in assay [5] (setting [7]) it was 70 nM.

Consider `O=C(Nc1ccc(Oc2ccnc3cnc(C4=CCN(C5COC5)CC4)cc23)cn1)c1cccn(-c2ccc(F)cc2)c1=O` [Example 16.2, 1-(4-fluorophenyl)-N-[5-[[6-[1-(oxetan-3-yl)-3,6-dihydro-2H-pyridin-4-yl]-1,7-naphthyridin-4-yl]oxy]-2-pyridyl]-2-oxo-pyridine-3-carboxamide], for which the IC50 came to 18 nM in assay [1]; 3 nM in assay [2] (setting [6]); 15 nM in assay [3]; 144 nM in assay [4]; 14 nM in assay [5] (setting [7]).

Take `CC(C)(C)OC(=O)N1CCC(c2cc3c(Oc4ccc(NC(=O)c5cccn(-c6ccc(F)cc6)c5=O)nc4)ccnc3cn2)CC1` [Example 16.4, tert-butyl 4-[4-[[6-[[1-(4-fluorophenyl)-2-oxo-pyridine-3-carbonyl]amino]-3-pyridyl]oxy]-1,7-naphthyridin-6-yl]piperidine-1-carboxylate]: the IC50 in assay [1] is 282 nM; in assay [2] (setting [6]), 13 nM; in assay [3], 154 nM; in assay [4] it was greater than 2500 nM; in assay [5] (setting [7]) it was 195 nM.

Take `CN1CCC(c2cc3c(Oc4ccc(NC(=O)c5cccn(-c6ccc(F)cc6)c5=O)cc4)ccnc3cn2)CC1` [Example 17, 1-(4-fluorophenyl)-N-[4-[[6-(1-methyl-4-piperidyl)-1,7-naphthyridin-4-yl]oxy]phenyl]-2-oxo-pyridine-3-carboxamide]: the IC50 in assay [1] is 240 nM; in assay [2] (setting [6]), 4 nM; in assay [3] it was 31 nM; in assay [4] it was 186 nM; in assay [5] (setting [7]), 25 nM.

Turning to `CC(C)n1cc(C(=O)Nc2ccc(Oc3ccnc4cnc(N5CCN(C6COC6)CC5)cc34)cn2)c(=O)n(-c2ccc(F)cc2)c1=O` [Example 20.1, 3-(4-fluorophenyl)-1-isopropyl-N-[5-[[6-[4-(oxetan-3-yl)piperazin-1-yl]-1,7-naphthyridin-4-yl]oxy]-2-pyridyl]-2,4-dioxo-pyrimidine-5-carboxamide], the IC50 in assay [1] came to 5 nM; in assay [2], 5 nM; in assay [3] it was 15 nM; in assay [4] it was 452 nM; in assay [5] (read-out: TEL-MERTK Ba/F3 IC50; cell survival, 48 h, CellTiter-Glo) it was 27 nM.
